The source made the active and inactive calls. No cut-off for these calls is given here.
The compounds below were run on C6 (assay: Cytotoxicity against rat C6 cells assessed as cell viability at 2 to 50 uM after 24 hrs by MTT assay).
Assay type: functional, cell-based

Row | SMILES | Activity
1 | N#Cc1cc2c(cc1C#N)Oc1cc([N+](=O)[O-])ccc1O2 | inactive
2 | N#Cc1cc2c(cc1C#N)Oc1cc(Br)ccc1O2 | Active
3 | N#Cc1cc2c(cc1C#N)Oc1ccccc1O2 | Active
